The values below come from article PMC7055011 (Bioorganic & medicinal chemistry, 2019).

The target in one data set is T1, hAPJ (Homo sapiens, UniProt P35414).
T1 sequence (P35414 1-380): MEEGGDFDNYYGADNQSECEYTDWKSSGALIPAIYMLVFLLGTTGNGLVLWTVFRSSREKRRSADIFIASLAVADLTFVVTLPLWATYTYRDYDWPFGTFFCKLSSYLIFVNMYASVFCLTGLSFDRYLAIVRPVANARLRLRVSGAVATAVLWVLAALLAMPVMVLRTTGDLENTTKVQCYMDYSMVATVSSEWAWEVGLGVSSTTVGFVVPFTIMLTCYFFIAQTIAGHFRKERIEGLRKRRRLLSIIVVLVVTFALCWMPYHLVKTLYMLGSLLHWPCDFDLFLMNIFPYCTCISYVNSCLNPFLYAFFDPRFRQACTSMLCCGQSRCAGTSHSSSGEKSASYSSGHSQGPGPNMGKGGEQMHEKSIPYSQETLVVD
As to the kind of experiment: Lance cAMP accumulation assay. It is filed as cell-based. A general note: Cyclic AMP is a second messenger, typically raised through Gs and lowered through Gi signalling.

In a further data set the test system is apelin receptor. Conditions: cited from earlier work.
Data set [1] in a line: Human liver microsomal stability. The note with it: for CLint scaled at 2 h, 1 µM: human, microsomes, pH 7.4. Format: in vitro ADME.
For data set [2], the target named is T2, human angiotensin II receptor, type I (Homo sapiens, UniProt P30556).
T2 sequence (P30556 1-359): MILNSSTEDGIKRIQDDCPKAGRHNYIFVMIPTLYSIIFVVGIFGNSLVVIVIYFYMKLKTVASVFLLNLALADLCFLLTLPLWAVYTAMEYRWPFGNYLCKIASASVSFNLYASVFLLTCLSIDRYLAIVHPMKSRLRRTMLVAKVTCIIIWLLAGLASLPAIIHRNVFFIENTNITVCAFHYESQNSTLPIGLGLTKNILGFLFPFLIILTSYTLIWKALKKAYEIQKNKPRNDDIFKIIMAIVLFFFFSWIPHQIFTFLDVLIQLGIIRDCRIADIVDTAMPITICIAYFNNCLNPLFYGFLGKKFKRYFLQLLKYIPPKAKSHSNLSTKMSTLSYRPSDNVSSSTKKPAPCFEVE
The note with it: cited from earlier work.

In another data set the test system is NTR2. Conditions: compared with hit 8; cited from earlier work.
The conditions of data set [3]: cited from earlier work.
For data set [4] the following is noted: cited from earlier work. The source holds these as a separate data set.
Data set [5] deals with 5-HT1A, α2C adrenergic, mu-opioid, benzylpiperazine receptors and norepinephrine transporter. Conditions: cited from earlier work.

One may read the CLint scaled as a measure of how fast metabolising enzymes remove a compound, apart from limits set by blood flow. Read a low CLint scaled as greater metabolic stability.

Take `COc1cccc(OC)c1-c1cc(C(=O)N[C@@H](CCC2CCCCC2)CC(=O)O)nn1CC1CCCCC1` [Compound 15, (S)-5-Cyclohexyl-3-(1-(cyclohexylmethyl)-5-(2,6-dimethoxyphenyl)-1H-pyrazole-3-carboxamido)pentanoic acid]: the “Activity in cAMP assay” value at hAPJ was “completely inactive”.
Turning to `COc1cccc(OC)c1-c1cc(C(=O)N[C@@H](CCC2CCCCC2)CC(=O)O)nn1C1CCCCCCC1` [Compound 16, (S)-5-Cyclohexyl-3-(1-cyclooctyl-5-(2,6-dimethoxyphenyl)-1H-pyrazole-3-carboxamido)pentanoic acid], the “Activity in cAMP assay” value on hAPJ was “completely inactive”.
Consider `CCC(CC)n1c(Cc2cccs2)nc2cc(C(=O)N[C@H](CC(=O)O)CC(C)C)ccc21` [CMF-019, (S)-5-Methyl-3-{1-(pentan-3-yl)-2-(thiophen-2-ylmethyl)-1H-benzo[d]imidazole5-carboxamido}hexanoic Acid], for which, in the data set with apelin receptor, the “Bias towards Gαi signaling over receptor internalization” value is ~ 6000 fold and the “Bias towards Gαi signaling over β-arrestin recruitment” value is ~ 400 fold.
Regarding `COc1cccc(OC)c1-c1cc(C(=O)N[C@@H](CCC2CCCCC2)CC(=O)O)nn1-c1ccc(F)cc1` [Compound 9, (S)-5-cyclohexyl-3-(5-(2,6-dimethoxyphenyl)-1-(4-fluorophenyl)-1H-pyrazole-3-carboxamido)pentanoic acid], in data set [1], the “Stability in human liver microsomes” value is listed as “excellent stability” and the CLint scaled at 2 h, 1 µM was 5 mL/min/kg. Also, the “Activity at AT1 receptor, previously reported” value in data set [2] is listed as “did not activate or inhibit”. In the data set on NTR2, the “Off-target NTR2 activity” value was “significantly reduced”.
For `CC1=CC(=O)C(C2CCCCC2)=C/C1=N\OS(=O)(=O)c1ccccc1` [ML233, (E)-2-cyclohexyl-5-methyl-4-(phenylsulfonyloxyimino)cyclohexa-2,5-dienone], the “Solubility” value in data set [3] is reported as “poor solubility”. For the same compound, the “Stability in microsomal fractions” value in data set [4] is given as “poor”. Further, the “Off-target binding” value in data set [5] is “significant off-target binding”.
In data set [1], `CCOc1ccc2c(C)cc(=O)oc2c1` [7-ethoxy-4-methylcoumarin] had a CLint scaled at 2 h, 1 µM of 325 mL/min/kg.
